Results published in ChEMBL document CHEMBL3046709, “Substituted aminoalcohol ester analogs of indomethacin with reduced toxic effects” (Med Chem Res, 2007).
Where a name gives a salt, the structure may show the parent alone.

Legend:
[1] = Half life in aqueous buffer at 1 mg/ml at pH 7.4 measured for 6 hr; type: ADME
Mus musculus = experiment: Analgesic activity in Mus musculus (mouse) assessed as inhibition of acetic acid-induced writhing at 15 mg/kg, po administered 1 hr prior to acetic acid challenge measured at 5 to 20 min relative to control; type: functional
Rattus norvegicus [2] = experiment: Ulcerogenic activity in 36 hr fasting Rattus norvegicus Sprague-Dawley (rat) stomach assessed as ulcer index at 25 mg/kg, po measured after 4 hr; type: toxicity, organism-based; parameters: dose 25 mg/kg, route oral; details: in vivo
Rattus norvegicus [3] = experiment: Anticholinergic activity in po dosed overnight fasted Rattus norvegicus (rat) ileum; type: functional; details: read-out: pA2 (converted)
Rattus norvegicus [4] = experiment: Anti-inflammatory activity in Rattus norvegicus Sprague-Dawley (rat) assessed as inhibition of carrageenan-induced paw edema at 3 mg/kg, po administered 1 hr prior to carrageenan-challenge measured after 3 hr by plethysmometric analysis relative to control; type: functional

Row | half-life at 1 mg/ml [1] | SMILES | inhibition in vivo at 15 mg/kg (Mus musculus) | UI (Rattus norvegicus [2]) | Kb (Rattus norvegicus [3]) | inhibition in vivo at 3 mg/kg (Rattus norvegicus [4])
1 | 39 h | CCN(CC)CCOC(=O)Cc1c(C)n(C(=O)c2ccc(Cl)cc2)c2ccc(OC)cc12 | 23% | 0.317 | 32.4 µM | 34.6%
2 | 99 h | COc1ccc2c(c1)c(CC(=O)OCCN1CCCC1)c(C)n2C(=O)c1ccc(Cl)cc1 | 37.2% | 0.341 | 12 µM | 37.5%
3 | 34 h | COc1ccc2c(c1)c(CC(=O)OCCN(C)C)c(C)n2C(=O)c1ccc(Cl)cc1 | 39.9% | 0.149 | 6.46 µM | 46.7%

The remaining lines, values behind:

Row | SMILES | half-life at 1 mg/ml [1] | inhibition in vivo at 15 mg/kg (Mus musculus) | UI (Rattus norvegicus [2]) | Kb (Rattus norvegicus [3]) | inhibition in vivo at 3 mg/kg (Rattus norvegicus [4])
4 | COc1ccc2c(c1)c(CC(=O)OCCN1CCCCC1)c(C)n2C(=O)c1ccc(Cl)cc1 | 66 h | 35% | 0.134 | 9.12 µM | 16.6%
5 | COc1ccc2c(c1)c(CC(=O)OCCN1CCOCC1)c(C)n2C(=O)c1ccc(Cl)cc1 | 52 h | 35.5% | 0.259 | 6.92 µM | 23.1%
6 | CN1C2CCC1CC(OC(=O)C(CO)c1ccccc1)C2 (stereo not drawn) [ENDO-ATROPINE SULFATE] |  |  |  | 0.00631 µM | 
7 | COc1ccc2c(c1)c(CC(=O)O)c(C)n2C(=O)c1ccc(Cl)cc1 [INDOMETHACIN] |  | 42.1% | 0.547 |  | 45.4%
